Columns and labels:
Solubility in solvents = assay type: physicochemical
Description: A 2.5 gram sample of a red raspberry seed extract in a dry powder form was split into two fractions, one combined 1.25 grams of the dry extract with 11.25 grams of water to create a 10% aqueous solution of the extract. […] Combining 1.25 grams of the dry extract with about 11.25 grams of isopropyl alcohol (91%) produced an about 10% alcohol solution.
Using pure water was explored in extraction experiments with cranberry seed powder. The advantages of using water are essentially zero cost and toxicity. It is also a very polar solvent and will not extract any residual oils (which are very non-polar compounds) from the seed powders. The limitations of using water are that it gives quite low yields in extractions at room temperature and only dissolved the most polar compounds from the seed powders, leaving most of the medium polarity materials behind. It is possible that this could be improved by heating. […] Simply filtering the mixture through inexpensive filter paper by gravity or mild vacuum will be unsuccessful. One solution that worked was mixing in filtering media (diatomaceous earth) and then vacuum filtering through a bed of the same filtering medium. To completely clarify the mixture, an additional treatment with activated carbon and further vacuum filtering through a bed of diatomaceous earth was effective. Given the limitations of water extraction, it was not used extensively. […]

[1] = Solubility in the enzyme assay; assay type: physicochemical; details: aqueous pH 7.00 phosphate buffer with DMSO stock

solubility in water (Solubility in solvents; high pH): very water soluble
solubility in water (Solubility in solvents; neutral pH): only slightly soluble
solubility in the enzyme assay [1]: highly insoluble
Structure (SMILES): O=c1oc2c(O)c(O)cc3c(=O)oc4c(O)c(O)cc1c4c23 [ellagic acid]
